In US6602882B1, “Quinoline derivatives and their use as antibacterial agents” (SmithKline Beecham p.l.c., priority 1998, dated 2003):
≈ marks a conversion by molar mass, not a printed value. Read-outs that look alike come from different tables or passages of the source.

Tests used:
Type in all cases: cell-based
[1] = test system: S. pneumoniae R6; experiment: MIC against S. pneumoniae R6
Description: (§1) The MIC (μg/ml) of compounds 1, 3 and 4 against various organisms was determined.

[2] = test system: M. catarrhalis Ravasio; experiment: MIC against M. catarrhalis Ravasio
Description: as §1

[3] = test system: S. aureus WCUH29; experiment: MIC against S. aureus WCUH29
Description: as §1

[4] = test system: S. aureus Oxford; experiment: MIC against S. aureus Oxford
Description: as §1

[5] = test system: E. faecalis I; experiment: MIC against E. faecalis I
Description: as §1

[6] = test system: S. aureus Carter 37; experiment: MIC against S. aureus Carter 37
Description: as §1

[7] = Streptococcus pneumoniae, read-out: MIC
[8] = Staphylococcus aureus, read-out: MIC
[9] = Enterococcus faecalis, read-out: MIC
[10] = Staphylococcus aureus, CARTER37, read-out: MIC

| Structure (SMILES) | MIC [3] [µg/mL] | MIC [4] [µg/mL] | MIC [5] [µg/mL] | MIC [1, 7] [µg/mL] | MIC ([2]; Moraxella catarrhalis, read-out: MIC) [µg/mL] | MIC [3, 8] [µg/mL] | MIC [4, 8] [µg/mL] | MIC [5, 9] [µg/mL] | MIC [6, 10] [µg/mL] | MIC [1] [µg/mL] | MIC [2] [µg/mL] | MIC [6] [µg/mL] |
| --- | --- | --- | --- | --- | --- | --- | --- | --- | --- | --- | --- | --- |
| CCCCCCCN1CCC(OC(=O)Nc2ccnc3ccc(OC)cc23)CC1 [Example 3, 1-Heptyl-4-[N-(6-methoxyquinolin-4-yl)aminocarbonyloxy]piperidine] |  |  |  | 4 (≈ 10 µM) | 16 (≈ 40 µM) | 4 (≈ 10 µM) | 8 (≈ 20 µM) | 8 (≈ 20 µM) | 8 (≈ 20 µM) |  |  |  |
| CCCCCCCN1CCC(NC(=O)Nc2ccnc3ccc(OC)cc23)CC1 [Example 4, 1-Heptyl-4-(6-methoxyquinolin4-yl)ureidopiperidine] |  |  |  | 2 (≈ 5.02 µM) |  | 8 (≈ 20.1 µM) | 16 (≈ 40.1 µM) | 8 (≈ 20.1 µM) | 16 (≈ 40.1 µM) |  |  |  |
| CCCCCC1CCC2CC(OC(=O)Nc3ccnc4ccc(OC)cc34)CCN2C1 (centres unmarked) [Example 1, 1-Aza-8-(ax)-[(6-methoxyquinolin-4-yl)-aminocarbonyloxy]-3-(ax)-n-pentyl-bicyclo[4,4,0]decane] | 4 (≈ 9.4 µM) | 2 (≈ 4.7 µM) | 8 (≈ 18.8 µM) |  |  |  |  |  |  | 1 (≈ 2.35 µM) | 32 (≈ 75.2 µM) | 8 (≈ 18.8 µM) |
| CCCCCCCN1CC[C@H](NC(=O)Nc2ccnc3ccc(OC)cc23)[C@H](CO)C1.O=C(O)C(=O)O (relative stereo) [Example 5, N-(cis-1-Heptyl-3-(R/S)-hydroxymethyl-4-(S/R)-piperidyl)-N′-(6-methoxyquinolin-4-yl)urea oxalate] | 1 | 1 | 4 |  |  |  |  |  |  |  |  |  |

Now from value to compound, other results behind:

| MIC [3] [µg/mL] | MIC [4] [µg/mL] | MIC [5] [µg/mL] | Structure (SMILES) | MIC [1, 7] [µg/mL] | MIC ([2]; Moraxella catarrhalis, read-out: MIC) [µg/mL] | MIC [3, 8] [µg/mL] | MIC [4, 8] [µg/mL] | MIC [5, 9] [µg/mL] | MIC [6, 10] [µg/mL] | MIC [1] [µg/mL] | MIC [2] [µg/mL] | MIC [6] [µg/mL] |
| --- | --- | --- | --- | --- | --- | --- | --- | --- | --- | --- | --- | --- |
| 1 | 1 | 8 | CCCCCCCN1CCC(NC(=O)Nc2ccnc3ccc(OC)nc23)CC1.O=C(O)C(=O)O [Example 7] |  |  |  |  |  |  |  |  |  |
| 1 | 0.5 | 8 | CCCCCCCN1CC[C@H](NC(=O)Nc2ccnc3ccc(OC)nc23)[C@H](CO)C1.O=C(O)C(=O)O (relative stereo) [Example 6, N-(cis-1-Heptyl-3-(R/S)-hydroxymethyl-4-(S/R)-piperidyl)-N′-(6-methoxy-[1,5]-naphthyridin-4-yl)urea Oxalate] |  |  |  |  |  |  |  |  |  |
